Data reported in PMC8607231, “Generation of KS-133 as a Novel Bicyclic Peptide with a Potent and Selective VIPR2 Antagonist Activity that Counteracts Cognitive Decline in a Mouse Model of Psychiatric Disorders” (Frontiers in Pharmacology, 2021).
Where a SMILES comes first, the peptide text is derived from it. Bridges are numbered along the chain shown (N, C = ends).

Tests used:
human PAC1 = target: T1, human PAC1 (Homo sapiens, UniProt P41586); experiment: Calcium influx assay, antagonist activity against PACAP-PAC1 signaling; assay type: cell-based; conditions: ligand PACAP (35 nM) at EC80; CHO-K1 cells; n = 4 wells, ± S.E.M; read-out: Ca influx assay [IC50 (nM)] PAC1
T1 construct: host or cells: CHO-K1
T1 sequence (P41586 21-468): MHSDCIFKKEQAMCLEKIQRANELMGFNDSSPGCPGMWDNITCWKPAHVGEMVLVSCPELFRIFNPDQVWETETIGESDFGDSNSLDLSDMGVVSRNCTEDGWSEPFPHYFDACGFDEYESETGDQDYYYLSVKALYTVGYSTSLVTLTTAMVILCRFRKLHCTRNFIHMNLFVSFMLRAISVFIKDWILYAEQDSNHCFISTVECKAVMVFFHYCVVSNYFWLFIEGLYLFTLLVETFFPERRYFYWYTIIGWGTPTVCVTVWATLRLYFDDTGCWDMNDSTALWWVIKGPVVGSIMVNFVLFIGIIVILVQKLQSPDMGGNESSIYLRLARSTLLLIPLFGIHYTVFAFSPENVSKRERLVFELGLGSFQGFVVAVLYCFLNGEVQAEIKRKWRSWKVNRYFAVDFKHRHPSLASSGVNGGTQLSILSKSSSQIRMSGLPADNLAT
Protocol: (§1) Evaluation of antagonist activities of peptides against VIP-VIPR1, VIP-VIPR2, and PACAP-PAC1 signaling pathways and agonistic activity of KS-133 at VIPR2 was carried out by Eurofins DiscoverX (Fremont, CA, United States). Intracellular calcium mobilization was monitored using a calcium-sensitive dye loaded in CHO-K1 cells expressing human VIPR1 (ITEM 86-0030P-2243AN), VIPR2 (ITEM 86-0030P-2244AN), and PAC1 (ITEM 86-0030P-2066AN). The cells were preincubated with antagonistic peptides for 30 min at room temperature in the dark. After addition of the ligand at EC80, calcium mobilization was immediately monitored by FLIPR Tetra for 2 min. Cyclic AMP production in CHO-K1 cells expressing human VIPR2 was evaluated using HitHunter® cAMP assays (antagonist mode: ITEM 86-0007P-2362AN; agonist mode: ITEM 86-0007P-2362AG). The cells were preincubated with antagonistic peptides for 30 min at room temperature. After addition of the ligand at EC80, cells were further incubated for 30 min at room temperature. Cells were lysed and the cAMP content of the cell lysate was determined by the β-galactosidase-based enzyme fragment complementation assay ([Eglen, 2002]). IC50 values were estimated by the following equation: IC50 = 10^[Log(A/B) × (50–D)/(C–D) + Log(B)], where A is the concentration at >50% inhibition, B is the concentration at <50% inhibition, C is the inhibition rate at concertation A, and D is the inhibition rate at concertation B.
First, the antagonistic activities of parental VIpep-3, KS-132, KS-133 (monocyclic) (no bridging between Lys^7 and Asp^11), and KS-133 against human VIPR1, VIPR2, and PAC1 were evaluated by a calcium influx assay. After antagonistic peptide treatment for 30 min, ligand at a concentration of EC80 was added to the cells and then calcium signaling was measured.
FIGURE 3 Antagonistic/agonistic activities of peptides in the calcium influx and cAMP assays. For evaluation of the antagonistic activity, the cells were preincubated with antagonistic peptides for 30 min. In the calcium influx assay, after addition of ligand at EC80, calcium mobilization was monitored immediately (see details in the Methods section) (n = 4 wells for each treatment). In the cAMP assay, after a 30 min incubation with the ligand at EC80, cAMP production in cells was measured (see details in the Methods section) (n = 4 wells for each treatment).

human VIPR2 = target: T2, human VIPR2 (Homo sapiens, UniProt P41587); experiment: HitHunter cAMP assay, agonist mode; assay type: cell-based
T2 construct: host or cells: CHO-K1
T2 sequence (P41587 24-438): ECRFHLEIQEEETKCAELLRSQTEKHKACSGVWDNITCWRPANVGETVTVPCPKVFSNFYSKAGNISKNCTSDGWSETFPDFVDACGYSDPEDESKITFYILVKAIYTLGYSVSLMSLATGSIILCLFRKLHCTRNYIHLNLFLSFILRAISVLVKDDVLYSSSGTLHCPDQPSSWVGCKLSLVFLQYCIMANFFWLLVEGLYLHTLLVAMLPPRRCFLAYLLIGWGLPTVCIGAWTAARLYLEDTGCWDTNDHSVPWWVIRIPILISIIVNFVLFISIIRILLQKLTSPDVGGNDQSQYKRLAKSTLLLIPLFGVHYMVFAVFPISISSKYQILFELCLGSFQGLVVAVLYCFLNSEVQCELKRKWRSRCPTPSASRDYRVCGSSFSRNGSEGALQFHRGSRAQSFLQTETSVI
Protocol: as §1, with “The cells were preincubated with antagonistic peptides for 30 min at room temperature. After addition of the ligand at EC80, cells were further incubated for 30 min at room temperature.” left out, “IC50 values were estimated by the following equation: IC50 = 10^[Log(A/B) × (50–D)/(C–D) + Log(B)], where A is the concentration at >50% inhibition, B is the concentration at <50% inhibition, C is the inhibition rate at concertation A, and D is the inhibition rate at concertation B.” left out
FIGURE 3 Antagonistic/agonistic activities of peptides in the calcium influx and cAMP assays. […] In the calcium influx assay, after addition of ligand at EC80, calcium mobilization was monitored immediately (see details in the Methods section) (n = 4 wells for each treatment). […]
Next, antagonistic and agonistic activities of KS-133 at VIPR2 were evaluated by a cAMP assay. […]

CC[C@H](C)[C@H](NC(=O)[C@H](CC(C)C)NC(=O)[C@@H]1CC(=O)NCCCC[C@@H]2NC(=O)[C@@H]3CCCN3C(=O)[C@H](CC(C)C)NC(=O)[C@H](Cc3ccc(O)cc3)NC(=O)[C@@H]3CCCN3C(=O)[C@@H]3CCCN3C(=O)[C@@H](NC(C)=O)CSSC[C@H](NC(=O)[C@H](CC(C)C)NC(=O)[C@H](Cc3ccc(O)cc3)NC2=O)C(=O)N1)C(N)=O [KS-133, Ac-c[Cys-Pro-Pro-Tyr-Leu-Pro-c(Lys-Tyr-Leu-Cys]-Asp)-Leu-Ile-NH2] (Ac-CPPYLPKYLCDLI-NH2; disulfide 1-10; lactam 7-11)
IC50 (human PAC1): > 5000 nM | cAMP assay (nM) Agonistic activity VIPR2 (human VIPR2; agonist mode, CHO-K1 cells): >5,000 nM | VIPR2 agonist activity (human VIPR2; cAMP assay, at high concentration of 5 μM): did not exhibit VIPR2 agonist activity
